This is an account of results in publication PMC6271944 (Molecules, 2014).

pIC50: −log10 of the molar value.

Series [1] has as its target T1, CYP1A2 (Homo sapiens, UniProt P05177).
T1 construct: Pooled human liver microsomes (HLM, LOT 32556) were purchased from BD Gentest Corporation; tissue BD Gentest Corporation LOT 32556; host or cells: pooled human liver microsomes
T1 sequence (P05177 1-516): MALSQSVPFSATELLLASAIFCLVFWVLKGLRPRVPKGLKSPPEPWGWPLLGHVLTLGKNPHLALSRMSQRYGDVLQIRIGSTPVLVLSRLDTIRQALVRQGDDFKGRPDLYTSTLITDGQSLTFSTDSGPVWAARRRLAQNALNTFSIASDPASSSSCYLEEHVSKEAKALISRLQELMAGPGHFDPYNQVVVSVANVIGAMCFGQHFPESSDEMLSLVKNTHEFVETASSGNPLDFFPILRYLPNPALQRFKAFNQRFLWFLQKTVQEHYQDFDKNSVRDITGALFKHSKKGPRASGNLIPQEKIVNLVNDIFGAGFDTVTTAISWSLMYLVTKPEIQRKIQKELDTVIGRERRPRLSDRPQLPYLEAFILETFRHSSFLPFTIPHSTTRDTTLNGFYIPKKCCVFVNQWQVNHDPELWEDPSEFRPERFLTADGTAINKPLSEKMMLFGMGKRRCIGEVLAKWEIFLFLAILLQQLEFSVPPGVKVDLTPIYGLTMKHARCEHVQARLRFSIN
The series can be described thus: CYP inhibition in human liver microsomes, substrate cocktail, LC-MS/MS (phenacetin). The class given is in vitro ADME. As to conditions: metabolite acetaminophen, read-out: IC50 for HLM, CYP1A2. From the text:
(§1) Positive controls (furafyline for CYP1A2, montelukast for CYP2C8, sulfaphenazole for CYP2C9, S-(+)-N-3-benzylnirvanol for CYP2C19, quinidine for CYP2D6, ketoconazole for CYP3A4) and specific substrates (phenacetin for CYP1A2, paclitaxel for CYP2C8, diclofenac for CYP2C9, S-mephenytoin for CYP2C19, dextromethorphan for CYP2D6, midazolam for CYP3A4) are consistent with our previous papers. The substrates were used at concentrations approximately equal to their respective Michaelis-Menten constant (Km) values: 10 μM phenacetin, 5 μM paclitaxel, 5 μM diclofenac, 200 μM S-mephenytoin, 5 μM dextromethorphan, and 2 μM midazolam. NADP^+ was added after a 15 min preincubation of all other components at 37 °C. After a given incubation time (30 min), the reactions were terminated by addition of 60 μL ice-cold acetonitrile containing gemfibrozil and buspirone as internal standards. Incubation samples were stored at −80 °C until used in liquid chromatography-tandem mass spectrometry (LC-MS/MS) analysis. The mixture was centrifuged at 3,500 rpm for 5 min. The supernatant was mixed with equal volume of a 1:1 mixture of methanol and water and 20 μL of the final mixture was used for LC-MS/ MS analysis. […]
(§2) The CYP inhibition potential were evaluated by measuring the formation of one or more metabolites of the test substrates. […]

Series [2] deals with T2, CYP2C9 (Homo sapiens, UniProt P11712).
T2 construct: Pooled human liver microsomes (HLM, LOT 32556) were purchased from BD Gentest Corporation; tissue BD Gentest Corporation LOT 32556; host or cells: pooled human liver microsomes
Briefly: CYP inhibition in human liver microsomes, substrate cocktail, LC-MS/MS (diclofenac). In kind it is in vitro ADME. As to conditions: metabolite 4-hydroxydiclofenac, read-out: IC50 for HLM, CYP2C9.
Text: as §1, §2

Series [3] concerns the target T3, CYP2C19 (Homo sapiens, UniProt P33261).
T3 construct: Pooled human liver microsomes (HLM, LOT 32556) were purchased from BD Gentest Corporation; tissue BD Gentest Corporation LOT 32556; host or cells: pooled human liver microsomes
Briefly: CYP inhibition in human liver microsomes, substrate cocktail, LC-MS/MS (S-mephenytoin). The class given is in vitro ADME. As to conditions: metabolite 4-hydroxymephenytoin, 95% CI in brackets, read-out: IC50 for HLM, CYP2C19.
Text: as §1, §2

The subject of series [4] is UGT1A6. On the set-up: dose or concentration left out as unconfirmed. As to conditions: cited from earlier work.
Series [5] relates to UGT2B7. On the set-up: dose or concentration left out as unconfirmed. As to conditions: cited from earlier work.
In series [6] the target is T4, CYP1A2 (Rattus norvegicus, UniProt P04799).
T4 sequence (P04799 1-513): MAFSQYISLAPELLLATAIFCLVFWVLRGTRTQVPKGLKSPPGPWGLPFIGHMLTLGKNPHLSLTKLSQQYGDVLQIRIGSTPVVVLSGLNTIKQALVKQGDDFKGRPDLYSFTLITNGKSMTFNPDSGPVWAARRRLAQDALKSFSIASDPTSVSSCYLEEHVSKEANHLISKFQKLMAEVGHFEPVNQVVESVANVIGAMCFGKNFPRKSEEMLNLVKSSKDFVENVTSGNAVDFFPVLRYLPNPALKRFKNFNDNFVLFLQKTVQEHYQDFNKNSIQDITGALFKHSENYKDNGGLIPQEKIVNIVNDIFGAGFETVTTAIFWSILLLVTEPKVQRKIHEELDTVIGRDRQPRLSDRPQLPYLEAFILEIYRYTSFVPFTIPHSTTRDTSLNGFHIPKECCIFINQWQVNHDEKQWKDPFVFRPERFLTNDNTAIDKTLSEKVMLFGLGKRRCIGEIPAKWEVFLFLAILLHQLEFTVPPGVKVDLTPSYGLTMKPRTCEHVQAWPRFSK
As to conditions: 30 mg/kg; cited from earlier work.

Series [7] deals with T4, CYP1A2. Briefly: CYP inhibition in rat liver microsomes, substrate cocktail, LC-MS/MS (phenacetin). In kind it is in vitro ADME. On the set-up: Pooled rat liver microsomes were prepared from three male Sprague-Dawley rats; from tissue; host or cells: pooled liver microsomes of three male Sprague-Dawley rats, prepared at HD Biosciences Co. As to conditions: read-out: IC50 for RLM, CYP1A2.
Text: as §1, §2

T2 sequence (P11712 whole entry): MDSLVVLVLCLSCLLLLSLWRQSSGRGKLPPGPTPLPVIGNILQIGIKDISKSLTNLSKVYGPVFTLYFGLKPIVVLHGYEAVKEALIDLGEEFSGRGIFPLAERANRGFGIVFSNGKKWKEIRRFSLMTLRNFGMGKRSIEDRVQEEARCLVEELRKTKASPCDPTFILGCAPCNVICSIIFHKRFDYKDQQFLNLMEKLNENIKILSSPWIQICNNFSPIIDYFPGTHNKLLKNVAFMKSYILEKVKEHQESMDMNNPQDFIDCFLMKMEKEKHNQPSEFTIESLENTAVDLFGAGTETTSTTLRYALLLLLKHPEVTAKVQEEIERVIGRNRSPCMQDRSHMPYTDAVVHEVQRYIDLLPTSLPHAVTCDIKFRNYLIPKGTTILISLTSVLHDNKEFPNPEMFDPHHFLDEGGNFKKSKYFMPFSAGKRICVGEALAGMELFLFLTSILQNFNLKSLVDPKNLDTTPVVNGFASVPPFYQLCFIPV
T3 sequence (P33261 whole entry): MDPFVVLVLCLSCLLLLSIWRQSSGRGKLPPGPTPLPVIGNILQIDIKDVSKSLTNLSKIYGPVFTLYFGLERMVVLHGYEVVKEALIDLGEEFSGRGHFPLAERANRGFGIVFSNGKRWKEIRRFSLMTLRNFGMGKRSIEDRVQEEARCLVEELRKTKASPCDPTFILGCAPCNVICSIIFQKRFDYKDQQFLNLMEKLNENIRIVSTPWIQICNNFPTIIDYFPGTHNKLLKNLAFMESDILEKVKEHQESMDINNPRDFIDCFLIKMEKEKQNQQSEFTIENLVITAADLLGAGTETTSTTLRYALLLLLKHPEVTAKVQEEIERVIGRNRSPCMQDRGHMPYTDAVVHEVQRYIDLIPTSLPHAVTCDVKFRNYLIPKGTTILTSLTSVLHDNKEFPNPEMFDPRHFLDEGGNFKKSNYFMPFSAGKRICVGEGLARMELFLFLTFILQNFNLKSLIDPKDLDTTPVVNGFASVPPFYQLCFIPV

As for `O=C(O)[C@H]1O[C@@H](Oc2cc3oc(-c4ccc(O)cc4)cc(=O)c3c(O)c2O)[C@H](O)[C@@H](O)[C@@H]1O` [scutellarin, Scutellarin], the pIC50 in series [1] was below 4.00; in series [2], below 4.00; in series [3] it was 4.20; in series [7], below 4.00. Also, in series [4], the “inhibition towards the activity of UGT1A6” value is on record as 20.2%. Moreover, in series [5], the “inhibition towards the activity of UGT2B7” value was 73.8%. Moreover, the “inhibition of CYP1A2 activity in whole animal studies” value in series [6] is recorded as “weakly inhibited”.
